Where two headings read alike, the source gives them in different places.
Biological target: Human CB2 (Homo sapiens, UniProt P34972)
Experiment: cAMP inhibition assay (HitHunter cAMP XS+, Eurofins) in human CB2 cells
Type: cell-based
Settings: for hCB2 cAMP (−) CP55,940 % Max: absence of CP55,940; for hCB2 cAMP (−) CP55,940 % Max / hCB2 cAMP (+) CP55,940 % Max: % of maximal CP55,940 response; for hCB2 cAMP (+) CP55,940 % Max: presence of EC20 CP55,940
Method: Assays were performed by Eurofins Discovery (Freemont, CA, USA). cAMP Hunter cell lines were expanded from freezer stocks according to standard procedures. Human CB2 cells were seeded in a total volume of 20 μL into white-walled, 384-well microplates and incubated at 37 °C for the appropriate time prior to testing. cAMP modulation was determined using the DiscoverX HitHunter cAMP XS+ assay. For agonist determination, cells were incubated with samples in the presence of EC80 forskolin to induce a response. Media was aspirated from cells and replaced with 10 μL HBSS/10 mM HEPES. Intermediate dilution of sample stocks was performed to generate 4× sample in assay buffer, and 5 μL of 4× sample was added to cells. Then, 5 μL of 4× EC80 forskolin diluted in HBSS/HEPES was added and incubated at 37 °C for 30 min. The final assay vehicle concentration was 1%. For allosteric determination, cells were pre-incubated with the sample followed by agonist induction at the EC20 concentration. Media was aspirated from cells and replaced with 10 μL HBSS/10 mM HEPES. Intermediate dilution of sample stocks was performed to generate 4× samples in assay buffer. Then, 5 μL of 4× compound was added to the cells and incubated at room temperature or 37 °C for 5 min. Subsequently, 5 μL of 4× EC20 agonist was added to the cells and incubated at 37 °C for 30 min. EC80 forskolin was included.
After appropriate compound incubation, the assay signal was generated by incubation with 5 μL cAMP XS+ Ab reagent, followed by 20 μL cAMP XS+ ED/CL lysis cocktail for one hour at room temperature. Then, 20 μL cAMP XS+ EA reagent was added and incubated for two hours at room temperature. Microplates were read following signal generation with a PerkinElmer Envision^TM instrument for chemiluminescent signal detection.
Compound activity was analyzed using the CBIS data analysis suite (ChemInnovation, San Diego, CA, USA). For agonist mode assays, percentage activity was calculated using the following formula: % Activity = 100% × (1 − (mean RLU of test sample − mean RLU of MAX control)/(mean RLU of vehicle control − mean RLU of MAX control)).
For Gi positive allosteric mode assays, percentage modulation was calculated using the following formula: % Modulation = 100% × (1 − (mean RLU of test sample − mean RLU of MAX control)/(mean RLU of EC20 control − mean RLU of MAX control)).

[1] = hCB2 cAMP (+) CP55,940 pEC50, presence of EC20 CP55,940, EC80 forskolin
[2] = hCB2 cAMP (−) CP55,940 pEC50, absence of CP55,940, EC80 forskolin

Human CB2, sequence (P34972 whole entry): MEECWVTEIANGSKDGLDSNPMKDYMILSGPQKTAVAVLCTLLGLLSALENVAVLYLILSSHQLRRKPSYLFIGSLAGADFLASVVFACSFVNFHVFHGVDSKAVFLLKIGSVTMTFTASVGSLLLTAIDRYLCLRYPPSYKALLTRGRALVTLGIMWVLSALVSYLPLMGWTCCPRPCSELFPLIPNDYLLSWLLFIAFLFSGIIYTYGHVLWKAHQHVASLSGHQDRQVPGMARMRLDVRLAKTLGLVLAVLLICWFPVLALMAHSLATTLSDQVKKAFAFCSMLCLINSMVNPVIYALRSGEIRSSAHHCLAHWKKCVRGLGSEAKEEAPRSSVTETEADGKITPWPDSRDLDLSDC

SMILES	hCB2 cAMP (−) CP55,940 % Max [%]	EC50 [1] [µM]	EC50 [2] [µM]	hCB2 cAMP (+) CP55,940 % Max [%]	hCB2 cAMP (−) CP55,940 pEC50 (absence of CP55,940, EC80 forskolin)	EC50 (presence of EC20 CP55,940, EC80 forskolin, read-out: hCB2 cAMP (+) CP55,940 pEC50 (converted)) [µM]
O=C(NCC1CCOCC1)c1cnc(Nc2ccc(Cl)cc2Cl)nc1C(F)(F)F [GW-842,166X, 2-(2,4-dichloroanilino)-N-(oxan-4-ylmethyl)-4-(trifluoromethyl)pyrimidine-5-carboxamide]	120	5.13	2.04	119	–	–
CC1(Cc2ccccc2)COc2cc(C(=O)N3CCCCC3)ccc21 (stereo not drawn) [MDA7, 1-[(3-benzyl-3-methyl-2,3-dihydro-1-benzofuran-6-yl)carbonyl]piperidine]	108	> 10	> 10	111	–	–
COc1c(C)c2c(c(O)c1C/C=C(\C)CCC(=O)OCCN1CCOCC1)C(=O)OC2 [Mycophenolate mofetil]	46	–	–	41	< 5.0	> 10

— paper PMC12112332, “Characterization of Novel and Known Activators of Cannabinoid Receptor Subtype 2 Reveals Mixed Pharmacology That Differentiates Mycophenolate Mofetil and GW-842,166X from MDA7” (International Journal of Molecular Sciences, 2025)
